From patent publication US20200270588A1, “GLUCOSYL TRANSFERASE POLYPEPTIDES AND METHODS OF USE” (Syngenta Participations AG, priority 2017, published 2020)
Several values for one entry are separate records, joined by “and”; a condition that tells them apart may be missing. Equal entries are not always repeated.

Target: T1, Zea mays bx8 glucosyl transferase (SEQ ID 2) (Zea mays, UniProt Q8W2B7)
T1 construct: His tag; made in house
T1 sequence (Q8W2B7 1-459): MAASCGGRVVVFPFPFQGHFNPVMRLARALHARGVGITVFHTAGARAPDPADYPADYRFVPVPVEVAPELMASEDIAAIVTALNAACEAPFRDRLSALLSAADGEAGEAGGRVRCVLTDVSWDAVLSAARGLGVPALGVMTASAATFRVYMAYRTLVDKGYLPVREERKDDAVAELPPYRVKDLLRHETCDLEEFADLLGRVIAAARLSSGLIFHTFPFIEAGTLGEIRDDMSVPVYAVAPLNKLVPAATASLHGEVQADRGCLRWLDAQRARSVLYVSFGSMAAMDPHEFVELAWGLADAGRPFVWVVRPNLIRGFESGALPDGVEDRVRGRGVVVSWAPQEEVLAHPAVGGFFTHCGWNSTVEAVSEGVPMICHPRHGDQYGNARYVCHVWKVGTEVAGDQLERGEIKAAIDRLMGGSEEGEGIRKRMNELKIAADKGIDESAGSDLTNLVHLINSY
Experiment: LC/MS glucosyl transferase assay (glucoside peak area), purified enzyme
Assay type: biochemical
Conditions: for integrated peak area of beta-glucoside product: LC/MS, about 60 min, ~15 pmol enzyme, relative quantification only
Procedure: In an alternative method for assaying the various enzymes, the test glucosyl transferase enzyme is reacted with substrates exactly as above except that the assay is stopped by adding an equal volume of acetonitrile. Alternatively 50 or 100 μl samples from assay reactions are added to 500 μl ethyl acetate to stop the reaction. In this case samples are then vortexed and 400 μl of the ethyl acetate partition removed, dried down, and resuspended in 100 μl 80:20 acetonitrile/water. The formation of product gluco side and/or disappearance of substrate test herbicide is then monitored directly by LC/MS. Samples are analyzed by LC-MS using an Agilent 1290 liquid chromatography system and Thermo Q-Exactive mass spectrometer. The chromatography is achieved on a Waters Acquity C18 BEH (50×2.1 mm) 1.7 μm particle size column, using a 6 minute gradient run of Water (0.2% formic acid) and Acetonitrile. The Q-Exactive is operated in positive ionisation electrospray mode, using Full scan-AIF mode, at 35,000 resolution, between 100-800 m/z. All analytes are identified from the full scan data to within at least 5 ppm accuracy of their predicted pseudo-molecular ion [M+H]^+ m/z value. In order to obtain quantitative data standard curves are run using herbicides and herbicide glucosides synthesized as standards. Where these synthetic glucosides were not available the LC/MS assay could only be used to provide relative data.
DNA sequences, optimized for E. coli codon usage, were cloned, expressed and the various proteins purified and assayed as described in the foregoing examples. Using the UDP assay (as described in examples 1, 3 and 6) the data obtained from the Zea mays bx8 w/t protein and its variants was noisy due to relatively high background rates in DMSO reagent blanks. The values reported in the table 15 were thus monitored by LC/MS as described in example 1.
DNA sequences, optimized for E. coli codon usage, are cloned, expressed and the various proteins purified and assayed as described in the foregoing examples. As in Example 4, a DNA sequence is designed and synthesized to express the N-terminally his tagged Zea mays bx8 (SEQ ID No: 2). However in this case the DNA sequence is modified to further include a peptide insertion “GIGVD”=SEQ ID No: 102 in place of D442 of SEQ ID No: 2 and as indicated in Table 2. The resultant modified sequence is cloned into the E. coli expression plasmid pET24a using 5′ NdeI and 3′ XhoI restriction sites, expressed, purified and assayed. […] In LC/MS assays run for 30 min and similar to those described in example 7 the integrated peak areas for glucoside product from herbicide V from the w/t Zea mays bx8 SEQ ID NO:2 was 1.5E6 units whereas the corresponding number for the equivalent protein containing the GIGVD peptide insert was 2.5E6 units. […]

Compound	integrated peak area of glucoside product (LC/MS assay run for 30 min, N-terminally his tagged)	integrated peak area of beta-glucoside product
CN1CC(O)N(c2cc(C(F)(F)F)ccn2)C1=O (stereo not shown) [Compound V]	1.5E6 units	2.52E+06 and 2.97E+06
CN1CC(O)N(c2cc(C(F)(F)F)c(Cl)cn2)C1=O (stereo not shown) [XI]	–	1.90E+04 and 2.36E+04 and 1.84E+04
CON1C(=O)N(c2cc(C(F)(F)F)ccn2)C(O)[C@@H]1C (stereo partly shown) [Compound VI]	–	8.08E+06 and 7.57E+06 and 8.81E+06 and 7.78E+06
